Measured values reported in US7166597B2, “Fused pyrazole derivatives being protein kinase inhibitors” (Glaxo Group Limited, priority 2000, dated 2007).
pIC50: −log10 of the molar value. Where two headings read alike, the source gives them in different places.

Key:
p38 kinase = target: T1, p38 kinase (Homo sapiens, UniProt Q16539); test: p38 Kinase Assay; type: biochemical
T1 construct: GST (N); made in house; host or cells: E. coli
Experimental: The peptide substrate used in the p38 assay was biotin-IPTSPITTTYFFFRRR-amide. The p38 and MEK6 proteins were purified to homogeneity from E. coli expression systems. The fusion proteins were tagged at the N-terminus with Glutathione-S-Transferase (GST). The maximum activation was achieved by incubating 20 uL of a reaction mixture of 30 nM MEK6 protein and 120 nM p38 protein in the presence of 1.5 uM peptide and 10 mM Mg (CH3CO2)2 in 100 mM HEPES7 pH 7.5, added to 15 uL of a mixture of 1.5 uM ATP with 0.08 uCi [g-^33P]ATP, with or without 15 uL of inhibitor in 6% DMSO. The controls were reactions in the presence (negative controls) or absence (positive controls) of 50 mM EDTA. Reactions were allowed to proceed for 60 min at room temperature and quenched with addition of 50 uL of 250 mM EDTA and mixed with 150 uL of Streptavidin SPA beads (Amersham) to 0.5 mg/reaction. The Dynatech Microfluor white U-bottom plates were sealed and the beads were allowed to settle overnight. The plates were counted in a Packard TopCount for 60 seconds. IC50 values were obtained by fitting raw data to % I=100*(1−(I−C2)/(C1−C2)), where I was […], C1 was positive control, and C2 was negative control.

[1] = test system: TNF release from human peripheral blood mononuclear cells (PBMNC); test: Cell Based Assay for Cytokines Production in PBMNC (TNF release after LPS); conditions: PBMC, read-out: TNF/PBMNC (inhibition of TNF release from human PBMNC following stimulation with LPS, IC50)
Experimental: Cell Based Assay for Cytokines Production in PBMNC
Human peripheral blood mononuclear cells were isolated from heparinized blood by LSM (Organon Teknika) from volunteer donors. Purified human peripheral blood mononuclear cells were then suspended at a concentration of 2×10^6 cells/ml in RPMI 1640 medium supplemented with 10% heat-inactivated FBS and 1% antibiotics. Aliquots of 100 μl (2×10^5 cells) were added to 96-well microliter plates. Test compounds at […] dose ranges (final-DMSO concentration in culture medium was 0.1%) were then added to the cells for 10–15 minutes before the addition of lipopolysaccharide (1 ng/ml). After incubation at 37° C. in a 5% CO2 incubator for 18–20 h, cell free supernatants were collected by centrifugation at 800 g. The supernatant was then assayed for the amount of TNFα and IL-1β by using Quantikine immunoassay kits developed by R&D Systems (Minneapolis, Minn.).

[2] = target: T2, JNK3 kinase (Jnk-3alpha-2) (Homo sapiens, UniProt P53779); test: JNK3 Kinase Assay; type: biochemical; conditions: Table 9; read-out: JNK3 IC50
T2 construct: Jnk-3alpha-2 (as a truncated construct, residues 39 to 224) was expressed in E. coli as a GST fusion protein; Following purification the GST portion was removed by thrombin cleavage; fused on or other part: An N-terminal GST tag was used for expression and removed by thrombin cleavage before the assay
T2 sequence (P53779 39-402 limits assumed): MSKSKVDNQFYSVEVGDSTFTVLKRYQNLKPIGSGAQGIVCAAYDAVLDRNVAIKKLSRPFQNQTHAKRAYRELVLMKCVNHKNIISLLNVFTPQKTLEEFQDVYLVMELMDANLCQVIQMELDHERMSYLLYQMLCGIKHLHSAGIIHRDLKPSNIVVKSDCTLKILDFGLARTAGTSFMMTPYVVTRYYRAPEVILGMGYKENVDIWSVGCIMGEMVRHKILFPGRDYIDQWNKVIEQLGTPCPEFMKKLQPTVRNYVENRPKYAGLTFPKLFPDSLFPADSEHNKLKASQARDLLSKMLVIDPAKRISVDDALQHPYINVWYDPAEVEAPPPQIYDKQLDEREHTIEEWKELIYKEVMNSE
Experimental: JNK3 Kinase Assay Jnk-3alpha-2 (as a truncated construct, residues 39 to 224) was expressed in E. coli as a GST fusion protein. Following purification the GST portion was removed by thrombin cleavage. The enzyme was stored at −80° C. Substrate c-Jun was expressed as a GST fusion protein including a signal peptide (biotinylation site) in E. coli. Following purification the substrate was biotinylated on a specific lysine in the signal peptide using biotin ligase. Prior to assay Jnk-3 was pre-activated by incubation with MgATP. The enzyme (10 nM) was screened in 40 mM HEPES (pH 7.4), 150 mM NaCl, 20 mM glycerophosphate, 1 mM DTT, 0.2 mM vanadate, 200 nM biotin-c-Jun, 5 mM MgCl2 and 10 uM ATP. Inhibitors were added over a conc range of from 0 to 10 uM in DMSO (fc 3%). The reaction was stopped by the addition of 25 mM EDTA. Phospho-c-Jun was detected using homogeneous time resolved fluorescence (HTRF) with a Eu-labelled antiphosphoserine (Serine 73) and streptavidin APC.

[3] = Table 9, p38 assays using Assay II, read-out: p38 IC50

T1 sequence (Q16539 whole entry): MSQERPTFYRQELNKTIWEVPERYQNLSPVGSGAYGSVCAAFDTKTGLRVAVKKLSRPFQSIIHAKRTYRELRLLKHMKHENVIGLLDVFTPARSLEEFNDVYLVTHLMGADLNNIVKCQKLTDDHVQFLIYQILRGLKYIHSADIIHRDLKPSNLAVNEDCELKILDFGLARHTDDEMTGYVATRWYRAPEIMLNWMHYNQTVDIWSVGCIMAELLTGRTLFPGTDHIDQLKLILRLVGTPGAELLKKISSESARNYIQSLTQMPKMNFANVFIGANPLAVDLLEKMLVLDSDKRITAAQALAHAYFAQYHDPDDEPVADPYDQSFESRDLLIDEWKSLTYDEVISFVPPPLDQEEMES

SMILES | pIC50 (p38 kinase; [3]) | pIC50 [2] | other results
Fc1ccc(-c2nn3cc(C(F)(F)F)ccc3c2-c2ccncc2)cc1 [Example 23, 2-(4-Fluorophenyl)-3-(4-pyridinyl)-6-(trifluoromethyl)pyrazolo[1,5-a]pyridine] |  |  | pIC50 (p38 kinase; Table 7, compounds wherein Z is CH, read-out: P38 kinase (inhibition of p38 kinase, IC50)): > 6.30; pIC50 ([1]; Table 7, LPS stimulation): > 6.30
Fc1ccc(-c2nn3ccccc3c2-c2ccnc(NCCc3cnc[nH]3)n2)cc1 [Example 80, 4-[2-(4-Fluorophenyl)pyrazolo[1,5-a]pyridin-3-yl]-N-[2-(1H-imidazol-5-yl)ethyl]-2-pyrimidinamine] |  |  | pIC50 (p38 kinase; Table 8, compounds wherein Z is N, read-out: p38 kinase (inhibition of p38 kinase, IC50)): > 6.30; pIC50 ([1]; Table 8, LPS stimulation): > 6.30
CC(C)N(CCNc1nccc(-c2c(-c3ccc(F)c(Cl)c3)nn3cc(C(F)(F)F)ccc23)n1)C(C)C [Example 100, N-{4-[2-(3-chloro-4-fluorophenyl)-6-(trifluoromethyl)pyrazolo-[1,5-a]pyridin-3-yl]pyrimidin-2-yl}-N-[2-(diisopropylamino)ethyl]amine] | 6.00 to 7.00 | 5.00 to 6.00 | 
Fc1ccc(-c2nn3cc(C(F)(F)F)ccc3c2-c2ccnc(NCCN3CCCC3)n2)cc1Cl [Example 104, N-{4-[2-(3-chloro-4-fluorophenyl)-6-(trifluoromethyl)pyrazolo-[1,5-a]pyridin-3-yl]pyrimidin-2-yl}-N-(2-pyrrolidin-1-ylethyl)amine] | 6.00 to 7.00 | 5.00 to 6.00 | 
FC(F)(F)c1ccc2c(-c3ccnc(NCCN4CCCC4)n3)c(-c3cccc(Cl)c3)nn2c1 [Example 105, N-{4-[2-(3-chlorophenyl)-6-(trifluoromethyl)pyrazolo[1,5-a]pyridin-3-yl]pyrimidin-2-yl}-N-(2-pyrrolidin-1-ylethyl)amine] | 6.00 to 7.00 | 5.00 to 6.00 | 
FC(F)(F)c1ccc2c(-c3ccnc(NCCCCN4CCCC4)n3)c(-c3cccc(Cl)c3)nn2c1 [Example 106, N-{4-[2-(3-chlorophenyl)-6-(trifluoromethyl)pyrazolo[1,5-a]pyridin-3-yl]pyrimidin-2-yl}-N-(4-pyrrolidin-1-ylbutyl)amine] | 7.00 to 8.00 | 6.00 to 7.00 | 
Fc1ccc(-c2nn3cc(C(F)(F)F)ccc3c2-c2ccnc(NCCN3CCCCC3)n2)cc1Cl [Example 109, N-{4-[2-(3-chloro-4-fluorophenyl)-6-(trifluoromethyl)pyrazolo[1,5-a]pyridin-3-yl]pyrimidin-2-yl}-N-(2-piperidin-1-ylethyl)amine] | 6.00 to 7.00 | 5.00 to 6.00 | 
FC(F)(F)c1ccc2c(-c3ccnc(NCCN4CCCCC4)n3)c(-c3cccc(Cl)c3)nn2c1 [Example 110, N-{4-[2-(3-chlorophenyl)-6-(trifluoromethyl)pyrazolo[1,5-a]pyridin-3-yl]pyrimidin-2-yl}-N-(2-piperidin-1-ylethyl)amine] | 6.00 to 7.00 | 5.00 to 6.00 | 
FC(F)(F)c1ccc(-c2nn3cc(C(F)(F)F)ccc3c2-c2ccnc(NCCCN3CCCCC3)n2)cc1 [Example 112, N-(3-piperidin-1-ylpropyl)-N-(4-{6-(trifluoromethyl)-2-[4-(trifluoromethyl)phenyl]pyrazolo[1,5-a]pyridin-3-yl}pyrimidin-2-yl)amine] | 5.00 to 6.00 | 5.00 to 6.00 | 
Fc1ccc(-c2nn3cc(C(F)(F)F)ccc3c2-c2ccnc(NCCCN3CCCCC3)n2)cc1Cl [Example 113, N-{4-[2-(3-chloro-4-fluorophenyl)-6-(trifluoromethyl)pyrazolo[1,5-a]pyridin-3-yl]pyrimidin-2-yl}-N-(3-piperidin-1-ylpropyl)amine] | 6.00 to 7.00 | 6.00 to 7.00 | 
Fc1ccc(-c2nn3cc(C(F)(F)F)ccc3c2-c2ccnc(NCCN3CCCCCC3)n2)cc1Cl [Example 116, N-(2-azepan-1-ylethyl)-N-{4-[2-(3-chloro-4-fluorophenyl)-6-(trifluoromethyl)pyrazolo[1,5-a]pyridin-3-yl]pyrimidin-2-yl}amine] | 6.00 to 7.00 | 5.00 to 6.00 | 
FC(F)(F)c1ccc2c(-c3ccnc(NCCN4CCCCCC4)n3)c(-c3cccc(Cl)c3)nn2c1 [Example 117, N-(2-azepan-1-ylethyl)-N-{4-[2-(3-chlorophenyl)-6-(trifluoromethyl)pyrazolo[1,5-a]pyridin-3-yl]pyrimidin-2-yl}amine] | 6.00 to 7.00 | 5.00 to 6.00 | 

Continued, in another order:

pIC50 (p38 kinase; [3]) | pIC50 [2] | SMILES | other results
7.00 to 8.00 | 6.00 to 7.00 | Fc1ccc(-c2nn3cc(C(F)(F)F)ccc3c2-c2ccnc(NCCN3CCOCC3)n2)cc1Cl [Example 120, N-{4-[2-(3-chloro-4-fluorophenyl)-6-(trifluoromethyl)pyrazolo[1,5-a]pyridin-3-yl]pyrimidin-2-yl}-N-(2-morpholin-4-ylethyl)amine] | 
6.00 to 7.00 | 6.00 to 7.00 | Fc1ccc(-c2nn3cc(C(F)(F)F)ccc3c2-c2ccnc(NCCCN3CCOCC3)n2)cc1Cl [Example 122, N-{4-[2-(3-chloro-4-fluorophenyl)-6-(trifluoromethyl)pyrazolo[1,5-a]pyridin-3-yl]pyrimidin-2-yl}-N-(3-morpholin-4-ylpropyl)amine] | 
7.00 to 8.00 | 6.00 to 7.00 | FC(F)(F)c1ccc2c(-c3ccnc(NCCCN4CCOCC4)n3)c(-c3cccc(Cl)c3)nn2c1 [Example 123, N-{4-[2-(3-chlorophenyl)-6-(trifluoromethyl)pyrazolo[1,5-a]pyridin-3-yl]pyrimidin-2-yl}-N-(3-morpholin-4-ylpropyl)amine] | 
7.00 to 8.00 | 6.00 to 7.00 | CN1CCN(CCCNc2nccc(-c3c(-c4ccc(F)cc4)nn4cc(C(F)(F)F)ccc34)n2)CC1 [Example 124, N-{4-[2-(4-fluorophenyl)-6-(trifluoromethyl)pyrazolo[1,5-a]pyridin-3-yl]pyrimidin-2-yl}-N-[3-(4-methylpiperazin-1-yl)propyl]amine] | 
7.00 to 8.00 | 6.00 to 7.00 | CN1CCN(CCCNc2nccc(-c3c(-c4ccc(F)c(Cl)c4)nn4cc(C(F)(F)F)ccc34)n2)CC1 [Example 125, N-{4-[2-(3-chloro-4-fluorophenyl)-6-(trifluoromethyl)pyrazolo-[1,5-a]pyridin-3-yl]pyrimidin-2-yl}-N-[3-(4-methylpiperazin-1-yl)propyl]amine] | 
5.00 to 6.00 | 5.00 to 6.00 | CCCN1CCN(CCNc2nccc(-c3c(-c4ccc(C(F)(F)F)cc4)nn4cc(C(F)(F)F)ccc34)n2)CC1 [Example 127, N-[2-(4-propylpiperazin-1-yl)ethyl]-N-(4-{6-(trifluoromethyl)-2-[4-(trifluoromethyl)phenyl]pyrazolo[1,5-a]pyridin-3-yl}pyrimidin-2-yl)amine] | 
7.00 to 8.00 | 6.00 to 7.00 | CCCN1CCN(CCNc2nccc(-c3c(-c4ccc(F)c(Cl)c4)nn4cc(C(F)(F)F)ccc34)n2)CC1 [Example 128, N-{4-[2-(3-chloro-4-fluorophenyl)-6-(trifluoromethyl)pyrazolo-[1,5-a]pyridin-3-yl]pyrimidin-2-yl}-N-[2-(4-propylpiperazin-1-yl)ethyl]amine] | 
7.00 to 8.00 | 6.00 to 7.00 | CCCN1CCN(CCNc2nccc(-c3c(-c4cccc(Cl)c4)nn4cc(C(F)(F)F)ccc34)n2)CC1 [Example 129, N-{4-[2-(3-chlorophenyl)-6-(trifluoromethyl)pyrazolo[1,5-a]pyridin-3-yl]pyrimidin-2-yl}-N-[2-(4-propylpiperazin-1-yl)ethyl]amine] | 
